Data taken from article PMC9794698, “Structure optimization of new tumor-selective Passerini α-acyloxy carboxamides as Caspase-3/7 activators” (Scientific Reports, 2022).
Where “and” joins values, the source holds several entries; their conditions need not be identical. Identical values can stand only once. Like-named read-outs stand apart in the source and are kept apart here.

Legend:
Wi-38 cells [1] = system: Wi-38 cells; parameters: method as in PMID 30826510; settings: MTT; previously studied nitro lead; cited from earlier work
HepG-2 cells [2] = system: HepG-2 cells; parameters: method as in PMID 30826510; settings: previously studied nitro lead, cited from earlier work
Wi-38 cells [3] = assay: MTT cytotoxicity assay, normal human fibroblasts; type: cell-based; settings: 72 h, mean ± SEM; for MNTC: dose at 100% cell viability, read-out: Wi-38 EC100
Experimental: (§1) Wi-38, Caco-2 and HepG-2 cells were cultured in DMEM medium-contained 10% FBS, seeded as 5 × 10^3 cells per well in 96-well cell culture plate and incubated at 37 °C in 5% CO2 incubator. After 24 h, serial concentrations of the test compounds were incubated with cells for 72 h. Cell viability was assayed via MTT protocol[27] (Supplementary data). IC50 values of the synthesized compounds were measured via the Graphpad Instat software. Morphological changes were examined using phase contrast inverted microscope with a digital camera (Olympus, Japan). […]
(§2) Normal human lung fibroblast Wi-38 cell line was used to detect cytotoxicity of the studied compounds.
Wi-38 cell line was cultured in DMEM medium-contained 10% fetal bovine serum (FBS), seeded as 5x10^3 cells per well in 96-well cell culture plate and incubated at 37 °C in 5% CO2 incubator. After 24 h for cell attachment, serial concentrations of the synthetic compounds and standard chemotherapy (5-fluorouracil) were incubated with Wi-38 cells for 72 h. Cell viability was assayed by MTT method Twenty microliters of 5 mg/ml MTT (Sigma, USA) was added to each well and the plate was incubated at 37 °C for 3 h. Then MTT solution was removed, 100 µl DMSO was added, and the absorbance of each well was measured with a microplate reader (BMG LabTech, Germany) at 570 nm. The dose (EC50 and EC100) values (at 50% and100% cell viability, respectively) of the tested compounds was estimated by the Graphpad Instat software. […]

Caco-2 cells [4] = assay: MTT cytotoxicity assay, colorectal cancer cells; type: cell-based, human; settings: for SI against the screened cell lines: Caco-2 and HepG-2 cells versus Wi-38; for IC50: Homo sapiens; for Caco-2 LE: LE = 1.37 (pIC50)/NHA; for Caco-2 LLE: LLE = pIC50–cLog P; for Morphological alterations of treated Caco-2 cells: microscopic examination after 72 h, compared to untreated and 5-FU-treated cells; for Caco-2 SI: ratio of IC50 against normal cells (Wi-38) to IC50 against Caco-2
Experimental: as §1, §2
(§3) Wi-38 cell line was cultured in DMEM medium-contained 10% fetal bovine serum (FBS), seeded as 5x10^3 cells per well in 96-well cell culture plate and incubated at 37 °C in 5% CO2 incubator. After 24 h for cell attachment, serial concentrations of the synthetic compounds and standard chemotherapy (5-fluorouracil) were incubated with Wi-38 cells for 72 h. Cell viability was assayed by MTT method Twenty microliters of 5 mg/ml MTT (Sigma, USA) was added to each well and the plate was incubated at 37 °C for 3 h. Then MTT solution was removed, 100 µl DMSO was added, and the absorbance of each well was measured with a microplate reader (BMG LabTech, Germany) at 570 nm. The dose (EC50 and EC100) values (at 50% and100% cell viability, respectively) of the tested compounds was estimated by the Graphpad Instat software.
(§4) The anticancer effect of the above-mentioned compounds was assayed using human colon cancer cell line (Caco-2) and liver cancer cell line (HepG-2) that were cultured in DMEM (Lonza, USA) supplemented with 10%
(§5) FBS. All cancer cells (5x10^3 cells/well) were seeded in sterile 96-well plates. After 24h, serial concentrations of the tested compounds and 5-fluorouracil (Fu) were incubated with two cancer cell lines for 72 h at 37 °C in 5% CO2 incubator. MTT method was done as described above. The half maximal inhibitory concentration (IC50) values were calculated using the Graphpad Instat software. Furthermore, cellular morphological changes before […]
(§6) contrast inverted microscope with a digital camera (Olympus, Japan).

HepG-2 cells [5] = assay: MTT cytotoxicity assay, liver cancer cells; type: cell-based, human; settings: for IC50: Homo sapiens, HepG2; for Morphological alterations of treated HepG-2 cells: microscopic examination after 72 h, compared to untreated and 5-FU-treated cells; for HepG-2 SI: ratio of IC50 against normal cells (Wi-38) to IC50 against HepG-2
Experimental: as §1, §2, §3, §4, §5, §6

caspase-3/7 [6] = assay: Caspase-3/7 activation assay (ApoONE kit) in Caco-2 cells; type: cell-based, human; settings: Caco-2 cells treated with IC50 doses; relative to untreated cells; mean ± SEM
Experimental: (§7) ApoONE® Caspase-3/7 kit was used following the manufacturer’s instructions (Supplementary data).
(§8) 5.2. Caspase-3/7 activation assay
(§9) The caspase 3/7 activation was assessed, as a key indicator in caspase-dependent apoptosis, using ApoONE® Caspase-3/7 kit following the manufacturer’s instructions. This kit used a nonfluorescence substrate […]
(§10) the generation of the fluorescence signals of Rhodamine 110. Thesesignal were measured at 490 nm excitation and 520 nm emission using the fluorescence microplate reader (BMG LabTech, Germany). […]

caspase-3/7 [7] = assay: Caspase-3/7 activation assay (ApoONE kit) in HepG-2 cells; type: cell-based, human; settings: HepG-2 cells treated with IC50 doses; relative to untreated cells; mean ± SEM
Experimental: as §7, §8, §9, §10

Bcl2 = assay: RT-qPCR of Bcl2 expression in Caco-2 cells; type: cell-based, human; settings: 0.06 µM for 72 h, mean ± SEM
Experimental: (§11) RNAs of untreated and treated cancer cells were extracted using Gene JET RNA purification kit (Thermo Scientific, USA). Then cDNAs were synthesized using cDNA Synthesis Kit (Thermo Scientific, USA). Real time PCR was performed using SYBR green master mix and specific primers (Forward/Reverse) as detailed in the supplementary data. […]
5.3. Real-time Quantitative PCR Analysis of Bcl2 […]
as §11, with “µM, for 72 h in 5% CO2 incubator. RNAs” for “RNAs”, “primers” for “primers (Forward/Reverse) as detailed in the supplementary data.”
The thermal cycling parameters were pre-denaturation, followed by 40 amplification cycles of 1 min at 95°C and 30 s at 60 °C and at 72°C for 30 sec. GAPDH mRNA was quantified to adjust the amount of mRNA in each sample. The 2−ΔΔCT equation was used to estimate change in gene expressions before and after treatment of cancer cells.
Table 1 primer sequences of the used genes

Caco-2 cells [8] = assay: Flow cytometric analysis of apoptosis (annexin V/PI); type: cell-based, human; settings: IC50 doses, 72 h, annexin-stained, mean ± SEM
Experimental: Reverse: 5′-[…]-3′
5.4. Flow cytometric analysis of apoptosis […]
human colon cancer cell line (Caco-2) for 72 h, at their minimum IC50 doses. After trypsinization, the untreated and treated cancer cells were stained with fluorescein isothiocyanate (FITC)-annexin V/ propidium iodide (PI) for 15 min. After washing with PBS, the annexin-stained apoptotic population was quantified using flow cytometry at FITC signal detector (FL1) against the phycoerythrin emission signal detector (FL2).

[9] = Caco-2, -log (IC50), molar, read-out: Caco-2 IC50 (converted)
[10] = Caco-2, MTT, 72 h, mean ± SEM, read-out: Caco-2 IC50 (converted)
[11] = Caco-2 and HepG-2 cells, MTT, read-out: IC50 against the screened cell lines
[12] = MTT, 72 h, mean ± SEM, read-out: HepG-2 IC50
[13] = read-out: HepG-2 pIC50 (converted)

Row | SMILES | MNTC (Wi-38 cells [3]) [nM] | IC50 (Wi-38 cells [3]) [nM] | SI against the screened cell lines (Caco-2 cells [4]) | IC50 (Caco-2 cells [4]; [9]) [nM] | IC50 (Caco-2 cells [4]; [10]) [nM] | IC50 (Caco-2 cells [4]; [11]) [nM] | Caco-2 LE (Caco-2 cells [4]) | Caco-2 LLE (Caco-2 cells [4]) | Morphological alterations of treated Caco-2 cells (Caco-2 cells [4]) | Caco-2 SI (Caco-2 cells [4]) | IC50 (HepG-2 cells [5]; [12]) [nM] | IC50 (HepG-2 cells [5]; [13]) [nM] | Morphological alterations of treated HepG-2 cells (HepG-2 cells [5]) | HepG-2 SI (HepG-2 cells [5]) | Relative fold increment in caspase 3/7 activity, Caco-2 (caspase-3/7 [6]) [fold] | Relative fold increment in caspase 3/7 activity, HepG-2 (caspase-3/7 [7]) [fold] | Bcl2 gene relative fold change (Bcl2) [fold] | % Apoptosis (total apoptotic cell population) (Caco-2 cells [8]) | further results
1 | O=C(Cc1ccccc1)OC1(C(=O)Nc2ccc([N+](=O)[O-])cc2)CCCCC1 [V] | – | – | – | – | – | – | – | – | – | – | – | – | – | – | – | – | – | – | IC50 (Wi-38 cells [1]): 44 nM; IC50 (HepG-2 cells [2]; MTT): 14 nM; SI (HepG-2) (HepG-2 cells [2]; Wi-38 vs HepG-2): 3.091
2 | CCOC(=O)c1ccc(NC(=O)C2(OC(=O)Cc3c[nH]c4ccccc34)CCCCC2)cc1 [7a, Ethyl-4-(1-(2-(1H-indol-3-yl)acetoxy)cyclohexanecarboxamido)benzoate] | 2980 ± 640 | 11200 ± 3750 | 97–243 | 88.1 | 88 ± 10 | 70 to 120 | 0.292 | 4.025 | severe shrinkage and morphological alterations | 127.215 | 115 ± 16 | 115 | severe shrinkage and morphological alterations | 97.347 | 3.086 ± 0.038 | 2.938 ± 0.063 | 0.471 ± 0.051 | 50.9% and 50.905 ± 5.975% | –
3 | CCOC(=O)c1ccc(NC(=O)C2(OC(=O)[C@H](Cc3ccccc3)NC(=O)Oc3ccccc3)CCCCC2)cc1 [7j, Ethyl-4-(1-((2-((phenoxycarbonyl)amino)-3-phenylpropanoyl)oxy)cyclohexanecarboxamido) benzoate] | 1770 ± 694 | 16800 ± 637 | 97–243 | 69 | 69 ± 6 | 70 to 120 | 0.239 | 3.461 | severe shrinkage and morphological alterations | 242.956 | 87 ± 7 | 87.1 | severe shrinkage and morphological alterations | 192.689 | 3.586 ± 0.098 | 2.960 ± 0.065 | 0.127 ± 0.009 | 52.6% and 52.650 ± 5.310% | –
